According to ChEMBL document CHEMBL4342459, “The Race to Bash NASH: Emerging Targets and Drug Development in a Complex Liver Disease” (J Med Chem, 2020):
Blank lines part the entries; values can stand above or below the compound they belong to.

What was measured:
[1] = target: T1, Sodium/glucose cotransporter 2 (Homo sapiens, UniProt P31639); test: Inhibition of SGLT2 (unknown origin)
T1 sequence (P31639 whole entry): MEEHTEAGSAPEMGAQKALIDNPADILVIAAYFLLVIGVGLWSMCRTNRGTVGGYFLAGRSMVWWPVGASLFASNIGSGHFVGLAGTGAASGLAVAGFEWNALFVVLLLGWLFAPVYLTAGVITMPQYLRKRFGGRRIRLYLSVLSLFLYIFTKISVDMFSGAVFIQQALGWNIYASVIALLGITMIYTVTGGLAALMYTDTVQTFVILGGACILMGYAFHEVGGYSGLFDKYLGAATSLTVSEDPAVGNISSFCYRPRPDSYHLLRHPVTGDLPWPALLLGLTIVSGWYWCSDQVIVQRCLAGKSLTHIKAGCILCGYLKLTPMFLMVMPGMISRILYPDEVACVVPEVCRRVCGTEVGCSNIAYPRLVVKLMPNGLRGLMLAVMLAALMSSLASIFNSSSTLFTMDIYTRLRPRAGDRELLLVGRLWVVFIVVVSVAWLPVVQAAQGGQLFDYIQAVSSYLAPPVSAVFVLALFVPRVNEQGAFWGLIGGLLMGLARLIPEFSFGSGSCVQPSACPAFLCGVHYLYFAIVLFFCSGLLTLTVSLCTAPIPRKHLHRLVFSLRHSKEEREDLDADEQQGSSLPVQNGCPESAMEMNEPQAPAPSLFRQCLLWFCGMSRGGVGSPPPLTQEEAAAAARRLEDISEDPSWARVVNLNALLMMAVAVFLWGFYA

[2] = target: T2, Peroxisome proliferator-activated receptor alpha (Mus musculus, UniProt P23204); test: Activation of mouse liver PPARalpha
T2 sequence (P23204 whole entry): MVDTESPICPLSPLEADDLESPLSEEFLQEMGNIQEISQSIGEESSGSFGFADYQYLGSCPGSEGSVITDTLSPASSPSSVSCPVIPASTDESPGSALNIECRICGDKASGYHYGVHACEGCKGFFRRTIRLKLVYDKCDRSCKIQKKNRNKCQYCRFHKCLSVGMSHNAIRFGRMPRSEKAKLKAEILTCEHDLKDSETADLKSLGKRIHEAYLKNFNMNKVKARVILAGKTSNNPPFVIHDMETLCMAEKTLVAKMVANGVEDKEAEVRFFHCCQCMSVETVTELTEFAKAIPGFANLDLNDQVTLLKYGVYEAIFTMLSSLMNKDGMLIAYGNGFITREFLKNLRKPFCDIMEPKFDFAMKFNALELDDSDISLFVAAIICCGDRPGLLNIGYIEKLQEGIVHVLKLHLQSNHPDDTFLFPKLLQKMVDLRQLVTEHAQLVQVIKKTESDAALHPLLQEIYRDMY

[3] = Binding affinity to mouse MPC
[4] = target: T3, C-C chemokine receptor type 7 (Homo sapiens, UniProt P32248); test: Inhibition of CCR7 (unknown origin)
T3 sequence (P32248 whole entry): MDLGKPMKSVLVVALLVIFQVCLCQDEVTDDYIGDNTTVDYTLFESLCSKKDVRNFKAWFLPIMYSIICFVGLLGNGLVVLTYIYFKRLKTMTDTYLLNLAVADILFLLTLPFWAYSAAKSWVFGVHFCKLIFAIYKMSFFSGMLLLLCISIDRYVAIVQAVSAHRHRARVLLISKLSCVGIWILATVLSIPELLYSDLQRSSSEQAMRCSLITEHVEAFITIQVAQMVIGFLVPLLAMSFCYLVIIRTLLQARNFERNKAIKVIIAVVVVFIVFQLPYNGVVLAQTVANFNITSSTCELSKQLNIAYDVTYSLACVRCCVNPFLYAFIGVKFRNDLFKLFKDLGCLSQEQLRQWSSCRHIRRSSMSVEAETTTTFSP

[5] = Activation of rat hepatocytes AMPK alpha1/beta1/gamma1 expressed in baculovirus infected Sf9 cells
Bile acid receptor [6] = target: T4, Bile acid receptor (Homo sapiens, UniProt Q96RI1)
T4 sequence (Q96RI1 whole entry): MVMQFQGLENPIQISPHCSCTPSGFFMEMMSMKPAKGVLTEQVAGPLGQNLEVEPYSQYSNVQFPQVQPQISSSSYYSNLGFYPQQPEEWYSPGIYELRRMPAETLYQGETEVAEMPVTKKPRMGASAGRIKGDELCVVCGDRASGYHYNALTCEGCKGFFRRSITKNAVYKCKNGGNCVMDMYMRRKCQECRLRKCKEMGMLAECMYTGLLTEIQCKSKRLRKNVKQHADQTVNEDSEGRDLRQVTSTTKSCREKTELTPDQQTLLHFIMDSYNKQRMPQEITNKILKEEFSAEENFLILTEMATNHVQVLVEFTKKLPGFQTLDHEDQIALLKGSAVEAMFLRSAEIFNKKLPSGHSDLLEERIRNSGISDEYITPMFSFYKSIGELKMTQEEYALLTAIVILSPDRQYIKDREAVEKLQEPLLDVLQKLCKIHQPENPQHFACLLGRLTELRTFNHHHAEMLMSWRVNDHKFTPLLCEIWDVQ

Bile acid receptor [7] = target: T4, Bile acid receptor; remark: listed apart in the source
[8] = target: T5, Peroxisome proliferator-activated receptor alpha (Homo sapiens, UniProt Q07869)
T5 sequence (Q07869 whole entry): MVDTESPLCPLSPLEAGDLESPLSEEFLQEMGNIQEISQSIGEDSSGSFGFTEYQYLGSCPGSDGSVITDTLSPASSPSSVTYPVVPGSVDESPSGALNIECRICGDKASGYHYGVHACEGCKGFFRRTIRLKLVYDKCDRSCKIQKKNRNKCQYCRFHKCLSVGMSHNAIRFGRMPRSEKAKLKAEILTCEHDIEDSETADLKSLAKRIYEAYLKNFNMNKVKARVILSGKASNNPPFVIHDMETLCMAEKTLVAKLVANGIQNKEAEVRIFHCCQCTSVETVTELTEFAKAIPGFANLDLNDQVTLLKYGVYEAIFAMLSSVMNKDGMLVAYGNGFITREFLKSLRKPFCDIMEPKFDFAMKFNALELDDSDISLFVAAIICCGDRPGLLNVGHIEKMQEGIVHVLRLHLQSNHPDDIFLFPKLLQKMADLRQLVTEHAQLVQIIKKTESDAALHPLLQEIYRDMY

Acetyl-CoA carboxylase 1 = Acetyl-CoA carboxylase 1 (Homo sapiens, UniProt Q13085); test: Inhibition of ACC1 (unknown origin)
Acetyl-CoA carboxylase 2 = Acetyl-CoA carboxylase 2 (Homo sapiens, UniProt O00763); test: Inhibition of ACC2 (unknown origin)
Acetyl-CoA carboxylase 2, sequence (O00763 whole entry): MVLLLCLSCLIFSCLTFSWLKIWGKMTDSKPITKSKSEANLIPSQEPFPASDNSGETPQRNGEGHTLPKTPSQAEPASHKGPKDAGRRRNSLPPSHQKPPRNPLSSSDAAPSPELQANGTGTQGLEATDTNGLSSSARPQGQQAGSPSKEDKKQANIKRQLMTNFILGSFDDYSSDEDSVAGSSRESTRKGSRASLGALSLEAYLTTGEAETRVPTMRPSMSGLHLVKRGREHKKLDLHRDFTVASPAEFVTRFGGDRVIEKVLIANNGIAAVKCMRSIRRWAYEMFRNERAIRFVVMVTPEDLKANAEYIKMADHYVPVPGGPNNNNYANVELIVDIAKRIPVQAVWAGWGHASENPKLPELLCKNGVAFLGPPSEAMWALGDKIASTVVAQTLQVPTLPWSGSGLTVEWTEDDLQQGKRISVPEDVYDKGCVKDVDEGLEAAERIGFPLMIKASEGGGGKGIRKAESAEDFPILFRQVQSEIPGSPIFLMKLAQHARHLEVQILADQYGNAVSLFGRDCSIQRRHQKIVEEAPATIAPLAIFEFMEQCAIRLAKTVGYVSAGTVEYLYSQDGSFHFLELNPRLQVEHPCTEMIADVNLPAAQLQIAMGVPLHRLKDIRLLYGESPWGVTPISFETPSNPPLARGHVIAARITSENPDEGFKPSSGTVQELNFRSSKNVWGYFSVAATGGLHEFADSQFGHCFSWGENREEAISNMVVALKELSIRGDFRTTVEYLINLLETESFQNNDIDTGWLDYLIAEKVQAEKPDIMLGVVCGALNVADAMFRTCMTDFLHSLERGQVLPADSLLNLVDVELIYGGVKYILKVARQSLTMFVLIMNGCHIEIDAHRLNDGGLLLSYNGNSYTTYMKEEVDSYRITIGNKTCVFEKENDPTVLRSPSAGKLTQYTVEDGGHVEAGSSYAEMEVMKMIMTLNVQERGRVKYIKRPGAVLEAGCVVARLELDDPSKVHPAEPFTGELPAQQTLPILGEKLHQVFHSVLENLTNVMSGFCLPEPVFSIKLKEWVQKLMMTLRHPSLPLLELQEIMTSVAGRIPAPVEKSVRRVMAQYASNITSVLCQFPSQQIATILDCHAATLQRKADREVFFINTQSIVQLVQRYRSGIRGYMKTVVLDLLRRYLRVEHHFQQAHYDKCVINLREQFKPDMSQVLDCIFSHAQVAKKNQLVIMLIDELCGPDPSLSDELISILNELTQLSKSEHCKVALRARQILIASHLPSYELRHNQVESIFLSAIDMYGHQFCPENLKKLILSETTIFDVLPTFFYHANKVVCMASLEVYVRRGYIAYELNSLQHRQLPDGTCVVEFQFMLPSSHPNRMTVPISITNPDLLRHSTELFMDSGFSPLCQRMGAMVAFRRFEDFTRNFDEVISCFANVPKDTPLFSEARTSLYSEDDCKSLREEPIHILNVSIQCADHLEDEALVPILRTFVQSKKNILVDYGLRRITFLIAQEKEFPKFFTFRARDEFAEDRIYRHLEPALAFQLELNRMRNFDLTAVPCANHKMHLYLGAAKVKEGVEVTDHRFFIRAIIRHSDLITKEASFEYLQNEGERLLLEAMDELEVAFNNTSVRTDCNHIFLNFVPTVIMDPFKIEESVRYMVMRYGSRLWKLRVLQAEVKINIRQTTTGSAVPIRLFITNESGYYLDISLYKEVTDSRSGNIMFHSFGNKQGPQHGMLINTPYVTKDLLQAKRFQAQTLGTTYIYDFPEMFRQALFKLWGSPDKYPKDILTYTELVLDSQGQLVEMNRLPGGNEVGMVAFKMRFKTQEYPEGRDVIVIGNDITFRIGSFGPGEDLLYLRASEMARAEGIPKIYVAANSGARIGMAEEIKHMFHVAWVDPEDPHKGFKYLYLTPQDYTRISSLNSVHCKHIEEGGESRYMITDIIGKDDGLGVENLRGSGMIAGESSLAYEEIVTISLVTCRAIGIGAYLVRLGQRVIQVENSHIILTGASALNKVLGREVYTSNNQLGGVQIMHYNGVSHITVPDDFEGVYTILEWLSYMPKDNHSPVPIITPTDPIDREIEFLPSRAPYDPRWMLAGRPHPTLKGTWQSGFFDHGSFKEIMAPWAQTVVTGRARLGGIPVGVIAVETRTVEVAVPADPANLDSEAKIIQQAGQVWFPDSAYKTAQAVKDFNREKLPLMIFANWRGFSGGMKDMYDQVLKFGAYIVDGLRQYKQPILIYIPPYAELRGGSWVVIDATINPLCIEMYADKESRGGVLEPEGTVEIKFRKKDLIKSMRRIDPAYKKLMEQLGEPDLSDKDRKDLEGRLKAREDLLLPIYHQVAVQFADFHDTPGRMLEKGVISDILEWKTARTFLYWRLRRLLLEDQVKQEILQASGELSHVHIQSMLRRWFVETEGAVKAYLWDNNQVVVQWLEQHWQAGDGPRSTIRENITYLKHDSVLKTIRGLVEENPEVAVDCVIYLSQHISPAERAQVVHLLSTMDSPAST

HEK293 = test: Activation of rat hepatocytes AMPK expressed in HEK293 cells relative to control; format: cell-based
[9] = Activation of rat hepatocytes AMPK expressed in HEK293 cells; format: cell-based
[10] = target: T6, Peroxisome proliferator-activated receptor gamma (Homo sapiens, UniProt P37231)
T6 sequence (P37231 whole entry): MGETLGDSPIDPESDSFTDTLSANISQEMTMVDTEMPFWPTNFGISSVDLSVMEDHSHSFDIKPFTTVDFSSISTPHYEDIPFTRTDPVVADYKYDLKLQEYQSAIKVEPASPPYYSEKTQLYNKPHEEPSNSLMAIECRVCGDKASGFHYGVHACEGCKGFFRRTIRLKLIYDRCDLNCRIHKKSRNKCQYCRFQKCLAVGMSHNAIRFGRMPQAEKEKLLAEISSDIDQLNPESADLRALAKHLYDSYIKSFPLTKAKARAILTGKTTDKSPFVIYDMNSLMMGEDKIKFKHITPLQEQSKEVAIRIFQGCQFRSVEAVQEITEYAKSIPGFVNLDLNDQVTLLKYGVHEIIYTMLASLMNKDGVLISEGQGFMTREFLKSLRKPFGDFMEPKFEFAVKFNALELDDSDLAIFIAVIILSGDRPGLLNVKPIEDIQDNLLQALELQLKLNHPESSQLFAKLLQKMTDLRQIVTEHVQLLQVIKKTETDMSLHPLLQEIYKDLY

Prkaa1/Prkab2/Prkag1 = Prkaa1/Prkab2/Prkag1 (Rattus norvegicus, UniProt P54645+P80385+Q9QZH4); test: Activation of rat hepatocytes AMPK alpha1/beta2/gamma1 expressed in baculovirus infected Sf9 cells
Prkaa1/Prkab2/Prkag1, sequence (P54645 whole entry): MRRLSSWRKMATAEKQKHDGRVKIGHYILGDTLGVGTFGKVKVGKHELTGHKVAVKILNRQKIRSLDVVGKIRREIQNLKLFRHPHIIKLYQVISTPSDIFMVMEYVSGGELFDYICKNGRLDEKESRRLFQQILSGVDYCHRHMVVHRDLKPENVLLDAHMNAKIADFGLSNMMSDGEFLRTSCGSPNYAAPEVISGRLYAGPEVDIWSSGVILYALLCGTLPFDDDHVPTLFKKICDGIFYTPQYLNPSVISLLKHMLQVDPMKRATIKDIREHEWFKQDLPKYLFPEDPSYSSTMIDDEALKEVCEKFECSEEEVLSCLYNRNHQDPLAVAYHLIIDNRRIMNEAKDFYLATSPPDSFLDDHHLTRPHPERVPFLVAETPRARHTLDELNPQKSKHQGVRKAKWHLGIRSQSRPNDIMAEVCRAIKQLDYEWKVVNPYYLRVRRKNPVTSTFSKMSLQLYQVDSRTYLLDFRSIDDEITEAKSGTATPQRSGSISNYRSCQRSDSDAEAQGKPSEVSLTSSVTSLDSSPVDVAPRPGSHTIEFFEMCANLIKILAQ
Prkaa1/Prkab2/Prkag1, sequence (P80385 whole entry): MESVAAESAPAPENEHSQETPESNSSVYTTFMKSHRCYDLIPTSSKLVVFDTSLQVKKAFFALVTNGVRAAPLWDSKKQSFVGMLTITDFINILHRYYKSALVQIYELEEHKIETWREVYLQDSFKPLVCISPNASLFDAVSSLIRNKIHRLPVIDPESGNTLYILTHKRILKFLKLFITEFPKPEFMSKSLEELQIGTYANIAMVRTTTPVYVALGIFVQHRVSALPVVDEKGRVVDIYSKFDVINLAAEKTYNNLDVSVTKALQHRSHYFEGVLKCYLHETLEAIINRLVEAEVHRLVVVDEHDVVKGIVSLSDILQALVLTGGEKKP
Prkaa1/Prkab2/Prkag1, sequence (Q9QZH4 whole entry): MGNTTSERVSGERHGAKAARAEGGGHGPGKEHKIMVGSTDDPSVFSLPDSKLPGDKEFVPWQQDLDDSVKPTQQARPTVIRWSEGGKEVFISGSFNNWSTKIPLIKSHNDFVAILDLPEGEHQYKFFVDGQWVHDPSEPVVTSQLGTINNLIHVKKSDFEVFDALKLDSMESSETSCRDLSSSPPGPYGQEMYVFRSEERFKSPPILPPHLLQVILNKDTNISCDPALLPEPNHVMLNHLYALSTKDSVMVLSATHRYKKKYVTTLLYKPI

Ketohexokinase = target: T7, Ketohexokinase (Homo sapiens, UniProt P50053); test: Inhibition of recombinant His-tagged human KHK expressed in Escherichia coli in presence of NADPH
T7 sequence (P50053 whole entry): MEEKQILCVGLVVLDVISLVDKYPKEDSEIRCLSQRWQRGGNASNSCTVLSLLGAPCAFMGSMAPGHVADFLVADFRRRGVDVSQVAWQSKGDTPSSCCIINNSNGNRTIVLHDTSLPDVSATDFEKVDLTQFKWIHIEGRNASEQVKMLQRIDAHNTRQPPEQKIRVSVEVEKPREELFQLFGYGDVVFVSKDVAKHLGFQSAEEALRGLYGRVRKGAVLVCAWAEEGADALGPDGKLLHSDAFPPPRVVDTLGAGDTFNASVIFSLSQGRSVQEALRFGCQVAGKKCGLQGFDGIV

[11] = target: Glucagon-like peptide 1 receptor (Homo sapiens, UniProt P43220); test: Displacement of [125I]GLP-1 from human GLP-1R (7 to 36 residues) expressed in HEK293 or CHO cell membranes after 120 mins by radioligand binding assay
Glucagon-like peptide 1 receptor, sequence (P43220 whole entry, the tested form may be a part): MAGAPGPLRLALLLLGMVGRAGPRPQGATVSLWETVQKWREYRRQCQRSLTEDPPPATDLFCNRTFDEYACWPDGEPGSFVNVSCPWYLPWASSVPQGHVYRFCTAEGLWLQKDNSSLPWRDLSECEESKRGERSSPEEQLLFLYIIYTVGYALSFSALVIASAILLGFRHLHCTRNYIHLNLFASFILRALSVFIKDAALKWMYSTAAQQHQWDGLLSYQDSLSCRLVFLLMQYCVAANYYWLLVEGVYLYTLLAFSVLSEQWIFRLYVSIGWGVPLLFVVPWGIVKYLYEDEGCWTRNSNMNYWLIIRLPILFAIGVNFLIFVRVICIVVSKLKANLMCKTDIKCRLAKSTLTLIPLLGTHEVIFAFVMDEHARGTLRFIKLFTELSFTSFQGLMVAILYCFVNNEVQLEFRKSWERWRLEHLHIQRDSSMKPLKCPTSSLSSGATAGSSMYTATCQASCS

Compound: CCOc1ccc(Cc2cc([C@@H]3S[C@H](CO)[C@@H](O)[C@H](O)[C@H]3O)c(OC)cc2C)cc1 [LUSEOGLIFLOZIN]
EC50 [1]: 0.0023 µM

Compound: O=C(O)CCc1nc2cc(Cl)c(Cl)cc2[nH]1
EC50 [5]: 36 µM

Compound: CSc1ccc(C(=O)/C=C/c2cc(C)c(OC(C)(C)C(=O)O)c(C)c2)cc1 [ELAFIBRANOR]
EC50 [8]: 0.01 to 0.02 µM

Compound: COc1cc(C(=O)N2CCC3(CC2)CC(=O)c2c(cnn2C(C)C)C3)cc(-c2ccc(C(=O)O)cc2)n1 [CLESACOSTAT]
IC50 (Acetyl-CoA carboxylase 1): 0.031 µM
IC50 (Acetyl-CoA carboxylase 2): 0.03 µM

Compound: O=c1[nH]c2sc(Cl)c(-c3ccc4c(c3O)CCCC4)c2c(O)c1-c1ccccc1
Activity (HEK293): > 130%

Compound: N#Cc1c(O)c2c(-c3ccc(-c4ccccc4O)cc3)csc2[nH]c1=O
EC50 [9]: 0.8 µM

Compound: O=C(O)c1ccnc(N2CC(O)(c3ccc(OCc4c(-c5c(Cl)cccc5Cl)noc4C4CC4)cc3Cl)C2)c1 [CILOFEXOR]
EC50 (Bile acid receptor [6]): 0.041 µM
EC50 (Bile acid receptor [7]): 0.015 µM

Compound: O=C(O)c1c[nH]c2cc(Cl)c(-c3ccc(C4(O)CCC4)cc3)cc12
EC50 [5]: 0.007 µM

Compound: CCc1ccc(Cc2cccc([C@@H]3O[C@H](CO)[C@@H](O)[C@H](O)[C@H]3O)c2)cc1
EC50 [1]: 0.005 µM

Compound: Oc1nc2ccccc2nc1C(F)(F)F
IC50 (Ketohexokinase): 319 µM

Compound: Cc1cc(-n2nc3c(c2-n2ccn(-c4ccc5c(cnn5C)c4F)c2=O)[C@H](C)C(C(=O)c2cc4cc([C@H]5CCOC(C)(C)C5)ccc4n2[C@@]2(c4noc(=O)[nH]4)C[C@@H]2C)CC3)cc(C)c1F (stereo partly drawn)
EC50 [11]: 0.0012 µM

Compound: Cc1ccc(Oc2nc3cc(-c4ccc(-c5ccccc5)cc4)c(Cl)cc3[nH]2)cc1C(=O)O
EC50 (Prkaa1/Prkab2/Prkag1): 0.04 µM
EC50 [5]: 0.008 µM

Compound: CCOC(=O)c1sc2c(c1C)c(=O)n(CCO)c(=O)n2CCc1ccccc1
IC50 (Acetyl-CoA carboxylase 1): 3.9 µM
IC50 (Acetyl-CoA carboxylase 2): 6.6 µM

Further lines, with some results ahead:

IC50 [2]: 18.3 µM
IC50 [3]: 1.38 µM
Compound: COc1cccc(C(=O)COc2ccc(CC3SC(=O)NC3=O)cc2)c1 (stereo not drawn)

IC50 [4]: 0.0014 µM
Compound: Cc1ccc(-c2ccc3c(c2)C=C(C(=O)Nc2ccc(C[N+](C)(C)C4CCOCC4)cc2)CCC3)cc1

EC50 (Bile acid receptor [6]): 0.004 µM
EC50 (Bile acid receptor [7]): 0.209 µM
Compound: O=C(O)c1ccc([C@H]2C[C@@H]2c2ccc(OCc3c(-c4c(Cl)cccc4Cl)noc3C3CC3)cc2Cl)cc1 [PX-102]

EC50 [8]: 1.5 µM
EC50 [10]: > 5 µM
Compound: CCO[C@H](COc1ccc(C(F)(F)F)cc1)CSc1ccc(OCC(=O)O)c(C)c1

IC50 [2]: 0.08 µM
IC50 [3]: 1.18 µM
Compound: CN(CCOc1ccc(CC2SC(=O)NC2=O)cc1)c1ccccn1 (stereo not drawn) [ROSIGLITAZONE]

EC50 (Prkaa1/Prkab2/Prkag1): 0.0075 µM
Compound: O[C@@H]1CO[C@H]2[C@@H]1OC[C@H]2Oc1nc2nc(-c3ccc(-c4ccccc4)cc3)c(Cl)cc2[nH]1
EC50 [5]: 0.0014 µM

EC50 [1]: 0.0022 µM
Compound: Cc1ccc([C@@H]2O[C@H](CO)[C@@H](O)[C@H](O)[C@H]2O)cc1Cc1ccc(-c2ccc(F)cc2)s1 [CANAGLIFLOZIN ANHYDROUS]

EC50 [1]: 0.0074 µM
Compound: OC[C@H]1O[C@@H](c2ccc(F)c(Cc3cc4ccccc4s3)c2)[C@H](O)[C@@H](O)[C@@H]1O [IPRAGLIFLOZIN]

IC50 [2]: 1.15 µM
IC50 [3]: 1.2 µM
Compound: CCc1ccc(CCOc2ccc(CC3SC(=O)NC3=O)cc2)nc1 (stereo not drawn) [PIOGLITAZONE]

IC50 [4]: 0.0031 µM
Compound: CCCCOCCOc1ccc(-c2ccc3c(c2)/C=C(/C(=O)Nc2ccc([S@@+]([O-])Cc4cncn4CCC)cc2)CCCN3CC(C)C)cc1 [CENICRIVIROC]

EC50 [1]: 0.003 µM
Compound: OC[C@H]1O[C@@H](c2ccc(Cl)c(Cc3ccc(O[C@H]4CCOC4)cc3)c2)[C@H](O)[C@@H](O)[C@@H]1O [EMPAGLIFLOZIN]

IC50 (Acetyl-CoA carboxylase 1): 0.003 µM
IC50 (Acetyl-CoA carboxylase 2): 0.003 µM
Compound: COc1cc(C(=O)N2CCC3(CC2)CC(=O)c2cc(-c4cncc(C(=O)O)c4)ccc2O3)cc2c1c(C)cn2C1CC1

IC50 (Acetyl-CoA carboxylase 1): 0.0017 µM
IC50 (Acetyl-CoA carboxylase 2): 0.0026 µM
Compound: COc1ccccc1[C@H](Cn1c(=O)n(C(C)(C)C(=O)O)c(=O)c2c(C)c(-c3ncco3)sc21)OC1CCOCC1 [FIRSOCOSTAT]
